# Entries after “also recorded” stand apart in the source; their conditions may differ. Where two headings read alike, the source gives them in different places.
# Key:
# [1] = Comparative solubility data (Table 1); assay type: physicochemical
# Description: (§1) This allows formulation in aqueous solution at high concentration, which is important for preparing parenteral dosage forms.
# [2] = Comparative vehicle data (Table 2); assay type: physicochemical
# Description: as §1
# mouse = conditions: cited from earlier work
# rat = conditions: cited from earlier work
# dog = conditions: cited from earlier work
# mammals = conditions: many mammals; cited from earlier work
# [3] = Stability of the dosing solution; assay type: physicochemical; conditions: 30 mg/mL dosing solution
# Experimental: In one more exemplary embodiment of the methods of making the pharmaceutical compositions of the invention, a dosing solution of bis-N-acetyl-cystine-trisulfide at 30 mg/mL is prepared by weighing the desired amount of solid bis-N-acetyl-cystine-trisulfide into a clear glass vial and chilling the vial to −20° C. The solvent is prepared by chilling a suitable amount of a mixture of 1 volumes of 0.5N NaOH in saline and 2 volumes of above vehicle solution to between 0° C. and 4° C. One mL of this solvent is added to the vial per 30 mg of bis-N-acetyl-cystine-trisulfide contained and the resulting suspension mixed immediately until the solid is fully dissolved. This dosing solution of bis-N-acetyl-cystine-trisulfide is stable for at least 1.5 hours at room temperature and for at least 24 hours when frozen at −20° C. The dosing solution is warmed to room temperature prior to intravenous injection.
# Method: Vehicle solution was prepared by mixing 1 volume of solution B, 4 volumes of solution A, and 36 volumes of saline. The pH of the resulting vehicle solution is about 6. To prepare a bis-N-acetyl-cysteine-trisulfide dosing solution at a concentration of 30 mg/ml and about pH 6, the appropriate amount of bis-N-acetyl-cystine-trisulfide was weighed into a clear glass vial and cooled to −20° C. Solutions B and A were mixed at a 1:2 volume ratio, vortexed, and cooled to 4° C. on ice. […]
# [4] = Pharmacokinetics of biologically available blood sulfide and plasma thiosulfate after intravenous administration; assay type: in vivo, Sprague Dawley rats; conditions: rat, IV bolus 16 or 32 mg/kg
# Experimental: Pharmacokinetic experiments were conducted with groups of two to four animals consisting of 9-10 week old, male Sprague Dawley rats, 276-300 grams (Charles River Laboratories, Wilmington, Mass.) with a jugular vein catheter and a femoral vein catheter. Animals were allowed to acclimate in a temperature and humidity controlled environment for 1-3 days prior to the commencement of experimental procedures. Food and water were provided ad libitum.
# A baseline blood sample (˜0.4 mL) was collected from each rat through the jugular vein cannula into a heparin-coated syringe (1 mL volume) fitted with a 23G Luer stub adapter. After sampling, the blood volume was replenished by slowly injecting 0.4 mL of a solution of 50 u/mL heparin in saline through the jugular vein cannula.
# [5] = Free sulfide in blood measured with sulfide-specific electrode in vena cava; assay type: in vivo, CD rats; conditions: rat, 20 mg/kg IV over 1 min, monitored 30 min
# Description: Male CD rats (350-450 g, Charles River Laboratories) were anesthetized by IV pentobarbital injection and the right jugular vein carefully exposed and dissected away from the surrounding tissue. An amperometric hydrogen sulfide sensor (World Precision Instruments, Sarasota, Fla., Cat. #ISO-H2S-2) was inserted into the jugular and advanced into the vena cava. Sensor current was monitored using a Powerlab 8/30 (ADInstruments, Colorado Springs, Colo.). Once a stable baseline current was attained, the animals received either vehicle (pH matched saline) or bis-N-acetyl-cystine-trisulfide (20 mg/kg) administered over 1 min via a left femoral vein catheter, and sensor current was monitored over 30 min. Changes in current were calibrated against an IK-1001 standard curve generated with the sensor in deoxygenated 50 mM HEPES, 150 mM NaCl, 1 mM DTPA at 37° C. and pH 7.4.
# [6] = Maximum tolerated dose, intravenous injection; conditions: mouse, in vivo; mice, intravenous injections
# Description: The absence of free sulfide is reflected in the low toxicity of the sulfide-releasing compounds.
# [7] = test system: livers of mice, injury by dGal/LPS; assay: Protection from endotoxin (dGal/LPS)-induced liver damage; assay type: in vivo, C57BL/6 mice
# Experimental: Male C57BL/6 mice, (22 to 24 g, Charles River Laboratories) were acclimated in a temperature and humidity controlled environment for 1-3 days prior to commencement of the experimental procedures. All cages were placed on water heating pads set at 30° C. Liver injury was caused by injecting mice intraperitoneally with 800 mg/kg d-Galactosamine (dGal), followed 30 min later by 100 μg/kg lipopolysaccharide (LPS) (FIG. 4) or with 1000 mg/kg dGal, followed 30 min later by 120 μg/kg LPS (FIG. 5). Bis-N-acetyl-cystine-trisulfide at 20 mg/kg (FIG. 4) or 40 and 60 mg/kg (FIG. 5), or vehicle were injected intraperitoneally 30 min later. Blood was collected by cardiac puncture under isoflurane anesthesia five hours after LPS injection. Serum was prepared and markers of liver injury, alanine aminotransferase (ALT) and aspartate aminotransferase (AST) measured.
# [8] = test system: livers of mice, ischemia/reperfusion (I/R) injury; assay: Protection from ischemia/reperfusion-induced liver damage; assay type: in vivo, C57BL/6 mice; conditions: last 5 min of 45 min occlusion, ALT five hours after reperfusion
# Experimental: C57BL/6 mice were anesthetized with a ketamine/xylazine combination given via intraperitoneal injection. A midline laparotomy was performed to expose the viscera and the stomach and intestines were moved laterally to allow for unimpeded visualization of the liver. A micoaneurysm clip was applied to the hepatic artery and portal vein to create a partial liver ischemia encompassing the medial and left lateral lobes (approximately 70% of the liver). […] The aneurysm clips were removed at 45 minutes to restore hepatic blood flow which was confirmed visually. The abdominal incision was closed using wound clips and animals were recovered in a warmed chamber with 100% oxygen. Five hours after reperfusion, blood was collected by cardiac puncture to measure serum alanine aminotransferase (ALT).
# [9] = Generation of biologically available sulfide in whole rat blood and inhibition by NAEM; assay type: in vitro ADME
# Experimental: The chemical nature of biologically available sulfide in blood was probed with the thiol-reactive reagent N-aminoethyl-maleimide (NAEM) which binds to free thiols and perthiols on proteins and blocks them from participating further in thiol-mediated chemical reactions. Biologically available sulfide was generated in blood by adding 1.3 mM bis-N-acetyl-cystine-trisulfide to 2 mL of whole rat blood. Biologically available sulfide was measured by derivatization with mono-bromo-bimane and levels of bis-N-acetyl-cystine-trisulfide in blood were followed by LC/MS/MS.
# [10] = water, read-out: Solubility Water
# [11] = 20% PEG400, aqueous with cosolvent or surfactant or cyclodextrin, read-out: Solubility 20% PEG400
# [12] = 17% HPBCD, aqueous with cosolvent or surfactant or cyclodextrin, read-out: Solubility 17% HPBCD
# [13] = rat blood pretreated with 20 mM NAEM for 30 min
compound,measurement,setting,value
CC(=O)N[C@@H](CSSSC[C@H](NC(C)=O)C(=O)O)C(=O)O [drawing 49],solubility,[1]; [10],> 40000 µg/mL
C=CCSSCC=C [Di-allyl di-sulfide],Preferred Vehicle,[2],40% HPBCD/0.1% citric acid
O=C(O)CCSSSCCC(=O)O,solubility,"[1]; aqueous with cosolvent or surfactant or cyclodextrin, 45% HPBCD (stated in the cell of the 17% HPBCD column), read-out: Solubility 45% HPBCD",> 20000 µg/mL
same,Solubility Water,[1]; water,poor
c1ccc(CCSSSCc2cccnc2)cc1,solubility,[1]; [11],310 µg/mL
same,solubility,[1]; [10],220 µg/mL
OCCSSSSCc1ccccc1,solubility,[1]; [12],> 6000 µg/mL
same,solubility,[1]; [11],110 µg/mL
same,solubility,[1]; [10],37 µg/mL
CC(=O)N[C@@H](CS)C(=O)O [N-acetyl-cysteine],LD50 IV,mouse,"3,800 mg/kg"
same,LD50 IV,rat,"1,140 mg/kg"
same,LD50 IV,dog,700 mg/kg
same,intravenous LD50,mammals,≥ 300 mg/kg
N[C@@H](CSSSC[C@H](N)C(=O)O)C(=O)O,Solubility in words,"[1]; water, 90% PEG400, 45% HPBCD, 45% Captisol, 2% Tween 80, 25% cremophor","Not soluble in water, 90% PEG400, 45% HPBCD, 45% Captisol, 2% Tween 80, 25% cremophor"
OCC(O)CSSSSCc1ccccc1 (stereo not shown),solubility,[1]; [12],6600 µg/mL
same,solubility,[1]; [11],230 µg/mL
same,solubility,[1]; [10],150 µg/mL
CC(=O)N[C@@H](CSSSCCc1ccccc1)C(=O)O,solubility,[1]; [12],18000 µg/mL
same,Solubility Water,[1]; water,poor
"CC(=O)N[C@@H](CSSSC[C@H](NC(C)=O)C(=O)O)C(=O)O [bis-N-acetyl-cystine-trisulfide, (R,R′)-3,3′-trithiobis-2-acetamidopropanoic acid]",Water solubility compared to other polysulfides,[1]; water,unexpectedly high water solubility
same,Stability of dosing solution at room temperature,"[3]; about pH 6, room temperature",at least 1.5 hours
same,Stability of dosing solution frozen,[3]; frozen at −20° C.,at least 24 hours
same,Plasma thiosulfate,[4]; ion chromatography,paralleled blood levels of biologically available sulfide; also recorded: elevation of plasma thiosulfate
same,Biologically available sulfide in blood,[4]; mono-bromo-bimane derivatization,dose-dependent elevation
same,Free sulfide in blood,[5],No free sulfide was detectable; also recorded: does not lead to any measurable increase
same,MTD,[6],~500 mg/kg
same,Liver injury (serum ALT and AST),"[7]; 20 mg/kg IP bolus 30 min after LPS, 800 mg/kg dGal, 100 μg/kg LPS, vs vehicle",reduced liver injury
same,"Endotoxin-induced liver injury (ALT, AST)","[7]; 20, 40 and 60 mg/kg IP, blood five hours after LPS (FIGS. 4 and 5)",protected from endotoxin-induced liver injury
same,Liver injury (serum ALT),"[7]; 40 and 60 mg/kg IP bolus 30 min after LPS, 1000 mg/kg dGal, 120 μg/kg LPS, vs vehicle",reduced liver injury
same,Liver ischemia/reperfusion injury (ALT),"[8]; intravenous bolus 5, 20 or 60 mg/kg",protection of the livers; also recorded: protected the liver from ischemia/reperfusion injury
same,Time until consumed in blood,"[9]; 1.3 mM in 2 mL whole rat blood, LC/MS/MS",≤ 5 min
same,Generation of biologically available sulfide in blood,"[9]; 1.3 mM in whole rat blood, mono-bromo-bimane derivatization",generating biologically available sulfide
same,Preferred Vehicle,[2],aqueous
"CS(=O)(=O)N[C@@H](CSSSC[C@H](NS(C)(=O)=O)C(=O)O)C(=O)O [bis-N-methylsulfonyl-cystine-trisulfide, (R,R′)-3,3′-trithiobis-2-(methylsulfonylamido)propanoic acid]",Water solubility compared to other polysulfides,[1]; water,unexpectedly high water solubility
same,Liver ischemia/reperfusion injury (ALT),"[8]; intravenous bolus 2, 5 or 20 mg/kg",protected the liver from ischemia/reperfusion injury
same,Liver ischemia/reperfusion injury (ALT),"[8]; intravenous bolus 2, 5 or 20 mg/kg, listed as bis-N-methylsulfonamide-cystine-trisulfide",protection of the livers
"NCCN1C(=O)C=CC1=O [NAEM, N-aminoethyl-maleimide]",Time until consumed in blood,"[9]; 20 mM NAEM, preincubation with rat blood",≤ 1 min
same,Effect on consumption of bis-N-acetyl-cystine-trisulfide,[9]; [13],reduced consumption
same,Effect on production of biologically available sulfide,[9]; [13],almost completely blocked
same,Effect on production of biologically available sulfide,"[9]; rat blood pretreated with 20 mM NAEM for 30 min, listed as N-aminoethyl-maleimide (NAEM)",reduces the generation of biologically available sulfide
COC(=O)[C@H](CSSSCc1ccccc1)NC(C)=O,solubility,[1]; [11],240 µg/mL
same,solubility,[1]; [10],100 µg/mL
CS(=O)(=O)N[C@@H](CSSSC[C@H](NS(C)(=O)=O)C(=O)O)C(=O)O [drawing 50],solubility,[1]; [10],> 80000 µg/mL
